# Assay results published in ChEMBL document CHEMBL1201862, “PubChem BioAssay data set” (2004).
#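 Step 1: Grow cells in 96-well plates. Step 2: Expose to compound for 48 hours at 5 concentrations. Step 3: Interpolate endpoints linearly; if unreached, use highest concentration. The concentration for 50% growth inhibition is given as GI50.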 Calls of active or inactive are those of the source. Rule as the data show it: active = GI50 up to about 1.1 µM and inactive = higher.
# Key:
# Assay in all cases: inhibition of tumour cell growth, NCI panel, 48 h
# 786-0 = tested on: 786-0
# A498 = tested on: A498
# A549 = tested on: A549
# ACHN = tested on: ACHN
# BT-549 = tested on: BT-549
# CAKI-1 = tested on: CAKI-1
# CCRF-CEM = tested on: CCRF-CEM
# COLO 205 = tested on: COLO 205
# DMS-114 = tested on: DMS-114
# DMS-273 = tested on: DMS-273
# DU-145 = tested on: DU-145
# EKVX = tested on: EKVX
# HCC 2998 = tested on: HCC 2998
# HCT-116 = tested on: HCT-116
# HCT-15 = tested on: HCT-15
# HL-60 = tested on: HL-60
# HOP-18 = tested on: HOP-18
# HOP-62 = tested on: HOP-62
# HOP-92 = tested on: HOP-92
# HT-29 = tested on: HT-29
# Hs-578T = tested on: Hs-578T
# IGROV-1 = tested on: IGROV-1
# K562 = tested on: K562
# KM-20L2 = tested on: KM-20L2
# KM12 = tested on: KM12
# LOX IMVI = tested on: LOX IMVI
# LXFL 529 = tested on: LXFL 529
# M14 = tested on: M14
# M19-MEL = tested on: M19-MEL
# MCF7 = tested on: MCF7
# MDA-MB-231 = tested on: MDA-MB-231
# MDA-MB-435 = tested on: MDA-MB-435
# MDA-N = tested on: MDA-N
# MOLT-4 = tested on: MOLT-4
# Malme-3M = tested on: Malme-3M
# NCI-H226 = tested on: NCI-H226
# NCI-H23 = tested on: NCI-H23
# NCI-H460 = tested on: NCI-H460
# NCI-H522 = tested on: NCI-H522
# NCI/ADR-RES = tested on: NCI/ADR-RES
# OVCAR-3 = tested on: OVCAR-3
# OVCAR-4 = tested on: OVCAR-4
# OVCAR-5 = tested on: OVCAR-5
# OVCAR-8 = tested on: OVCAR-8
# PC-3 = tested on: PC-3
# RPMI-8226 = tested on: RPMI-8226
# SF-268 = tested on: SF-268
# SF-295 = tested on: SF-295
# SF-539 = tested on: SF-539
# SK-MEL-28 = tested on: SK-MEL-28
# SK-MEL-2 = tested on: SK-MEL-2
# SK-MEL-5 = tested on: SK-MEL-5
# SK-OV-3 = tested on: SK-OV-3
# SN12C = tested on: SN12C
# SNB-19 = tested on: SNB-19
# SNB-75 = tested on: SNB-75
# SNB-78 = tested on: SNB-78
# SR = tested on: SR
# SW-620 = tested on: SW-620
# T47D = tested on: T47D
# TK-10 = tested on: TK-10
# U-251 = tested on: U-251
# UACC-257 = tested on: UACC-257
# UACC-62 = tested on: UACC-62
# UO-31 = tested on: UO-31
# XF498 = tested on: XF498
# DLD-1 = tested on: DLD-1
# RXF 393 = tested on: RXF 393
smiles,measurement,setting,value
COc1ccc2nc3ccccc3c(NCCCCCN(CCCl)CCCl)c2c1,GI50,786-0,0.0218 µM (active)
same,GI50,A498,0.206 µM (active)
same,GI50,A549,< 0.0308 µM (active)
same,GI50,ACHN,0.0266 µM (active)
same,GI50,BT-549,0.643 µM (active)
same,GI50,CAKI-1,0.0542 µM (active)
same,GI50,CCRF-CEM,0.0151 µM (active)
same,GI50,COLO 205,< 0.0301 µM (active)
same,GI50,DMS-114,0.073 µM (active)
same,GI50,DMS-273,< 0.0365 µM (active)
same,GI50,DU-145,0.192 µM (active)
same,GI50,EKVX,0.485 µM (active)
same,GI50,HCC 2998,0.108 µM (active)
same,GI50,HCT-116,0.0295 µM (active)
same,GI50,HCT-15,0.0619 µM
same,GI50,HL-60,< 0.0157 µM (active)
same,GI50,HOP-18,0.306 µM (active)
same,GI50,HOP-62,0.0776 µM (active)
same,GI50,HOP-92,0.04 µM (active)
same,GI50,HT-29,0.0354 µM (active)
same,GI50,Hs-578T,0.358 µM (active)
same,GI50,IGROV-1,0.177 µM (active)
same,GI50,K562,0.0229 µM (active)
same,GI50,KM-20L2,0.0647 µM (active)
same,GI50,KM12,0.0933 µM (active)
same,GI50,LOX IMVI,0.0294 µM (active)
same,GI50,LXFL 529,0.112 µM (active)
same,GI50,M14,0.0581 µM (active)
same,GI50,M19-MEL,0.116 µM (active)
same,GI50,MCF7,< 0.01 µM (active)
same,GI50,MDA-MB-231,0.257 µM (active)
same,GI50,MDA-MB-435,0.17 µM (active)
same,GI50,MDA-N,0.121 µM (active)
same,GI50,MOLT-4,0.0165 µM (active)
same,GI50,Malme-3M,0.524 µM (active)
same,GI50,NCI-H226,0.101 µM (active)
same,GI50,NCI-H23,0.0863 µM (active)
same,GI50,NCI-H460,< 0.01 µM (active)
same,GI50,NCI-H522,0.0267 µM (active)
same,GI50,NCI/ADR-RES,0.0399 µM (active)
same,GI50,OVCAR-3,0.0675 µM (active)
same,GI50,OVCAR-4,0.0658 µM (active)
same,GI50,OVCAR-5,0.207 µM (active)
same,GI50,OVCAR-8,0.0274 µM (active)
same,GI50,PC-3,0.0469 µM (active)
same,GI50,RPMI-8226,0.0317 µM (active)
same,GI50,SF-268,0.0383 µM (active)
same,GI50,SF-295,0.0255 µM (active)
same,GI50,SF-539,0.0787 µM (active)
same,GI50,SK-MEL-28,0.214 µM (active)
same,GI50,SK-MEL-2,0.194 µM (active)
same,GI50,SK-MEL-5,0.119 µM (active)
same,GI50,SK-OV-3,0.192 µM (active)
same,GI50,SN12C,0.0283 µM (active)
same,GI50,SNB-19,0.0427 µM (active)
same,GI50,SNB-75,0.0462 µM (active)
same,GI50,SNB-78,0.277 µM (active)
same,GI50,SR,< 0.01 µM (active)
same,GI50,SW-620,0.0227 µM (active)
same,GI50,T47D,< 0.01 µM (active)
same,GI50,TK-10,0.381 µM (active)
same,GI50,U-251,0.0318 µM (active)
same,GI50,UACC-257,1.03 µM (active)
same,GI50,UACC-62,0.036 µM (active)
same,GI50,UO-31,0.0705 µM (active)
same,GI50,XF498,0.051 µM (active)
COC(=O)C(CCCN1C(=O)c2ccccc2C1=O)C(=O)OC,GI50,786-0,> 100 µM (inactive)
same,GI50,A498,> 100 µM (inactive)
same,GI50,A549,> 100 µM (inactive)
same,GI50,ACHN,> 100 µM (inactive)
same,GI50,CAKI-1,> 100 µM (inactive)
same,GI50,CCRF-CEM,> 100 µM (inactive)
same,GI50,COLO 205,> 100 µM (inactive)
same,GI50,DLD-1,> 100 µM (inactive)
same,GI50,DMS-114,> 100 µM (inactive)
same,GI50,DMS-273,> 100 µM (inactive)
same,GI50,EKVX,> 100 µM (inactive)
same,GI50,HCC 2998,> 100 µM (inactive)
same,GI50,HCT-116,> 100 µM (inactive)
same,GI50,HCT-15,> 100 µM
same,GI50,HL-60,> 100 µM (inactive)
same,GI50,HOP-18,> 100 µM (inactive)
same,GI50,HOP-62,> 100 µM (inactive)
same,GI50,HOP-92,> 100 µM (inactive)
same,GI50,HT-29,> 100 µM (inactive)
same,GI50,IGROV-1,> 100 µM (inactive)
same,GI50,K562,> 100 µM (inactive)
same,GI50,KM-20L2,> 100 µM (inactive)
same,GI50,KM12,> 100 µM (inactive)
same,GI50,LOX IMVI,> 100 µM (inactive)
same,GI50,LXFL 529,> 100 µM (inactive)
same,GI50,M14,> 100 µM (inactive)
same,GI50,M19-MEL,> 100 µM (inactive)
same,GI50,MOLT-4,> 100 µM (inactive)
same,GI50,Malme-3M,> 100 µM (inactive)
same,GI50,NCI-H226,> 100 µM (inactive)
same,GI50,NCI-H23,> 100 µM (inactive)
same,GI50,NCI-H460,> 100 µM (inactive)
same,GI50,NCI-H522,> 100 µM (inactive)
same,GI50,OVCAR-3,> 100 µM (inactive)
same,GI50,OVCAR-4,> 100 µM (inactive)
same,GI50,OVCAR-5,> 100 µM (inactive)
same,GI50,OVCAR-8,> 100 µM (inactive)
same,GI50,RXF 393,> 100 µM (inactive)
same,GI50,SF-268,> 100 µM (inactive)
same,GI50,SF-295,> 100 µM (inactive)
same,GI50,SF-539,> 100 µM (inactive)
same,GI50,SK-MEL-28,> 100 µM (inactive)
same,GI50,SK-MEL-2,> 100 µM (inactive)
same,GI50,SK-MEL-5,> 100 µM (inactive)
same,GI50,SK-OV-3,> 100 µM (inactive)
same,GI50,SN12C,> 100 µM (inactive)
same,GI50,SNB-19,> 100 µM (inactive)
same,GI50,SNB-75,> 100 µM (inactive)
same,GI50,SNB-78,> 100 µM (inactive)
same,GI50,SW-620,> 100 µM (inactive)
same,GI50,TK-10,> 100 µM (inactive)
same,GI50,U-251,> 100 µM (inactive)
same,GI50,UACC-257,> 100 µM (inactive)
same,GI50,UACC-62,> 100 µM (inactive)
same,GI50,UO-31,> 100 µM (inactive)
same,GI50,XF498,> 100 µM (inactive)
COc1cccc(NC(=O)/C(Cc2nc3ccccc3nc2C)=N/NC(=O)C[n+]2ccccc2)c1,GI50,786-0,> 100 µM (inactive)
same,GI50,A498,> 100 µM (inactive)
same,GI50,A549,> 100 µM (inactive)
same,GI50,ACHN,> 100 µM (inactive)
same,GI50,CAKI-1,> 100 µM (inactive)
same,GI50,CCRF-CEM,51.5 µM (inactive)
same,GI50,COLO 205,20.8 µM (inactive)
same,GI50,DLD-1,> 100 µM (inactive)
same,GI50,DMS-114,> 100 µM (inactive)
same,GI50,DMS-273,63.4 µM (inactive)
same,GI50,EKVX,> 100 µM (inactive)
same,GI50,HCC 2998,> 100 µM (inactive)
same,GI50,HCT-116,67.1 µM (inactive)
same,GI50,HCT-15,> 100 µM
same,GI50,HL-60,> 100 µM (inactive)
same,GI50,HOP-18,> 100 µM (inactive)
same,GI50,HOP-62,> 100 µM (inactive)
same,GI50,HT-29,> 100 µM (inactive)
same,GI50,IGROV-1,> 100 µM (inactive)
same,GI50,K562,71.9 µM (inactive)
same,GI50,KM-20L2,> 100 µM (inactive)
same,GI50,KM12,> 100 µM (inactive)
same,GI50,LOX IMVI,> 100 µM (inactive)
same,GI50,LXFL 529,> 100 µM (inactive)
same,GI50,M14,> 100 µM (inactive)
same,GI50,M19-MEL,> 100 µM (inactive)
same,GI50,MOLT-4,> 100 µM (inactive)
same,GI50,Malme-3M,> 100 µM (inactive)
same,GI50,NCI-H226,> 100 µM (inactive)
same,GI50,NCI-H23,> 100 µM (inactive)
same,GI50,NCI-H460,66.4 µM (inactive)
same,GI50,OVCAR-3,> 100 µM (inactive)
same,GI50,OVCAR-4,> 100 µM (inactive)
same,GI50,OVCAR-5,> 100 µM (inactive)
same,GI50,OVCAR-8,> 100 µM (inactive)
same,GI50,RPMI-8226,26.5 µM (inactive)
same,GI50,SF-268,> 100 µM (inactive)
same,GI50,SF-295,> 100 µM (inactive)
same,GI50,SF-539,> 100 µM (inactive)
same,GI50,SK-MEL-28,> 100 µM (inactive)
same,GI50,SK-MEL-2,> 100 µM (inactive)
same,GI50,SK-MEL-5,> 100 µM (inactive)
same,GI50,SK-OV-3,> 100 µM (inactive)
same,GI50,SN12C,> 100 µM (inactive)
same,GI50,SNB-19,> 100 µM (inactive)
same,GI50,SNB-75,> 100 µM (inactive)
same,GI50,SNB-78,> 100 µM (inactive)
same,GI50,SR,> 100 µM (inactive)
same,GI50,SW-620,9.08 µM (inactive)
same,GI50,TK-10,> 100 µM (inactive)
same,GI50,U-251,17.7 µM (inactive)
same,GI50,UACC-257,45.4 µM (inactive)
same,GI50,UACC-62,> 100 µM (inactive)
same,GI50,UO-31,> 100 µM (inactive)
same,GI50,XF498,> 100 µM (inactive)
